What was measured:
[1] = test system: A10 smooth muscle cell line; assay: WST-1 cell viability assay, direct contact, ISO 10993-5; assay type: cell-based; details: A10 cells, relative to DMEM negative control, mean ± SD, n = 4
Experimental: (§1) Cytotoxicity Assays: In vitro cytotoxicity of adhesive formulations was assessed by direct contact with cells, according to ISO 10993-5 [35], which describes test methods to evaluate in vitro cytotoxicity of medical devices and, therefore, determine the in vitro biological response of mammalian cells using appropriate parameters. DNA mass quantification and Water-soluble tetrazolium (WST-1) assays were used to evaluate the toxicity of the formulations to a cell line. Negative and positive controls consisted of growth media with untreated cells and 5% Dimethyl sulfoxide (DMSO), respectively.
(§2) Cell Culture and Sample Preparation: A10 smooth muscle cell line (ATCC, CRL-1476™) were cultured in Dulbecco's modified Eagle's medium (DMEM), supplemented with 100 U mL^−1 penicillin/100 μg of streptomycin and 10% fetal bovine serum in a humidified atmosphere at 37° C. with 5% C02. The medium was changed every other day, allowing the cells to grow and reach confluency. When the cells reached 80-90% confluence, they were passaged following treatment with 0.25% trypsin-EDTA solution. This procedure was repeated until the cells entered their standard cellular cycle. Samples of adhesives were pre-conditioned in an incubator with DMEM for 24 h. Then, cells were seeded onto the samples, to which 200 μL of A10 suspension (approximately 25,000 cells/mL) was added. The seeded specimens were confined in the wells of a 96-well plate for 24 h, 72 h and 7 days.
WST-1 assay: For the WST assay, after removing media and rinsing with 1× with PBS, 200 μL of DMEM was added to each well. […] The absorbance was read using a multi-mode reader (BioTek Cytation 3, Biotek, Winooski, Vt., USA) at 450 nm, with a reference wavelength of 650 nm. […]
(§3) Statistical analysis: Data was analyzed using the software PASW Statistics 21.0 (SPSS Inc, Chicago, Ill., USA). Two-Way analysis of variance (ANOVA) and Tukey's multiple comparison post-hoc tests will be used to determine a statistical significance between the groups for the DNA mass quantification and WST-1 assays. […]

[2] = test system: A10 smooth muscle cell line; assay: DNA mass quantification (Hoechst 33258) cytotoxicity assay, direct contact, ISO 10993-5; assay type: cell-based; details: A10 cells, relative to DMEM negative control, mean ± SD, n = 4
Experimental: as §1
as §2, with “Then, cells were seeded onto the samples, to which 200 μL of A10 suspension (approximately 25,000 cells/mL) was added. The seeded specimens were confined in the wells of a 96-well plate for 24 h, 72 h and 7 days.” left out
DNA mass quantification: At each time-point, cells were lysed with ice-cold lysis buffer (0.05% Triton X-100, 50 mM EDTA in PBS) for 1 h and tested for DNA assay as previously described. […] Then, 10 μL of cell lysate was added to the dye and read against a calf thymus DNA standard in a fluorescence microplate reader (BioTek Cytation 3, Biotek, Winooski, Vt., USA), with the excitation wavelength set at 360 nm and the emission wavelength observed at 460 nm.
as §3

## C[S+](C)[O-] [5% DMSO, Dimethyl sulfoxide]
[1]; WST-1, 24 h
  Relative Cell viability (%): 18.4 ± 0.9%
[1]; WST-1, 72 h
  Relative Cell viability (%): 4.4 ± 1.1%
[1]; WST-1, 7 d
  Relative Cell viability (%): 1.0 ± 0.5%
[2]; 24 h
  Relative DNA mass (%): 15.3 ± 5.3%
[2]; 72 h
  Relative DNA mass (%): 1.3 ± 1.9%
[2]; 7 d
  Relative DNA mass (%): 1.4 ± 1.6%
